# Source: patent US5279812A, “Radiolabeled anticoagulant peptides” (Merrell Dow Pharmaceuticals Inc., priority 1991, dated 1994)
# Molecular target: T1, Bovine thrombin (Bos taurus, UniProt P00735)
# T1 construct: Bovine thrombin was titrated to an appropriate concentration
# Assay: thrombin induced fibrin clot inhibition assay
# Assay type: biochemical
# Settings: read-out: In vitro potency
# Method: Samples were tested in a thrombin induced fibrin clot inhibition assay. All the solutions of the assay were made with an assay buffer containing 0.12 M sodium chloride, 0.01 M sodium phosphate, 0.01% sodium azide and 0.1% bovine serum albumin, pH 7.4. […] This solution of thrombin (50 ul; 0.2 pmol) was added to the wells of a microtiter plate containing 50 ul of a solution of the synthetic peptide being tested. […] The turbidity of the solution was monitored by the autoreader at 5 min intervals. […] For the assays using human or bovine thrombin, thrombin was titrated to concentrations that gave the fibrin clot at the same rate over a 30 min period.
smiles,measurement,value
CC[C@H](C)[C@H](NC(=O)[C@@H]1CCCN1C(=O)[C@H](CCC(=O)O)NC(=O)[C@H](Cc1cc(I)c(O)c(I)c1)NC(=O)CCC(=O)O)C(=O)N1CCC[C@H]1C(=O)N[C@@H](CCC(=O)O)C(=O)N[C@@H](CCC(=O)O)C(=O)N[C@@H](C)C(=O)N[C@@H](CC1CCCCC1)C(=O)N[C@H](CCC(=O)O)C(=O)O [Example 1],IC50,< 25 µM
